Tests used:
[1] = system: Nicotiana tabacum; assay: Inhibition of colored carotenoid formation in transgenic Nicotiana tabacum (tobacco) ET4-208; assay type: functional, organism-based; details: read-out: I50
[2] = system: Nicotiana tabacum; assay: Inhibition of colored carotenoid formation in Nicotiana tabacum (tobacco); assay type: functional, organism-based; details: read-out: I50
[3] = system: Pantoea ananatis; assay: Resistance factor, ratio of I50 for Pantoea ananatis NFZ20 phytoene desaturase mutant to I50 for wild-type Erwinia uredovora phytoene desaturase by cellular assay
[4] = system: Pantoea ananatis; assay: Resistance factor, ratio of I50 for Pantoea ananatis NFZ42 phytoene desaturase mutant to I50 for wild-type Erwinia uredovora phytoene desaturase by cell-free assay
[5] = system: Pantoea ananatis; assay: Resistance factor, ratio of I50 for Pantoea ananatis NFZ4 phytoene desaturase mutant to I50 for wild-type Erwinia uredovora phytoene desaturase by cellular assay
[6] = system: Pantoea ananatis; assay: Resistance factor, ratio of I50 for Pantoea ananatis NFZ20 phytoene desaturase mutant to I50 for wild-type Erwinia uredovora phytoene desaturase by cell-free assay
[7] = system: Pantoea ananatis; assay: Resistance factor, ratio of I50 for Pantoea ananatis NFZ42 phytoene desaturase mutant to I50 for wild-type Erwinia uredovora phytoene desaturase by cellular assay
[8] = system: Pantoea ananatis; assay: Resistance factor, ratio of I50 for Pantoea ananatis NFZ4 phytoene desaturase mutant to I50 for wild-type Erwinia uredovora phytoene desaturase by cell-free assay

SMILES	IC50 [1] [µM]	IC50 [2] [nM]	Ratio [3]	Ratio [4]	Ratio [5]	Ratio [6]	Ratio [7]	Ratio [8]
CC1(C)CC(=O)C(C(=O)c2ccc(Cl)cc2[N+](=O)[O-])C(=O)C1	0.048	42						
C=C(Cl)COc1cc(C)nc(NC(C)C)n1	> 100	4500						
CCC(COc1cccc(C(F)(F)F)c1)OC(=O)NCCc1ccccc1 (configuration not stated)	> 100	1300						
CCOC(=O)C1=C(c2ccccc2)OC(CC)C(C)C1=O (configuration not stated)	> 100	740						
Nc1nc[nH]n1 [AMITROLE]	72	68000						
O=C(Nc1ccc(F)cc1F)c1cccnc1Oc1cccc(C(F)(F)F)c1 [DIFLUFENICAN]	> 100	38						
O=c1c(-c2ccccc2)c[nH]cc1-c1cccc(C(F)(F)F)c1 [FLURIDONE]			8	1	4	8	0.5	
CNC1=C(c2cccc(C(F)(F)F)c2)C(=O)C(c2ccccc2)O1 (configuration not stated) [FLURTAMONE]	> 100	47						
CNc1cnn(-c2cccc(C(F)(F)F)c2)c(=O)c1Cl [NORFLURAZONE]	> 100	330	20	23	24	12	40	15

— ChEMBL document CHEMBL3045503, “Mode of Action of Herbicides Affecting Carotenogenesis” (J Pestic Sci, 1996)
